Values quoted from earlier work in patent US20250319024A1, “TARGETED NANOPARTICLES AND THEIR USES RELATED TO INFECTIOUS DISEASE” (priority 2021, published 2025).
Read-outs that look alike come from different tables or passages of the source.

System: RIF sensitive strains / resistant strains
Conditions: cited from earlier work

## CO[C@H]1/C=C/O[C@@]2(C)Oc3c(C)c(O)c4c(O)c(c(/C=N/N5CCN(C)CC5)c(O)c4c3C2=O)NC(=O)/C(C)=C\C=C\[C@H](C)[C@H](O)[C@@H](C)[C@@H](O)[C@@H](C)[C@H](OC(C)=O)[C@@H]1C [free RIF, rifampin]
RIF sensitive strains
  ED95: below 0.5 μg/mL
Resistant strains
  ED95: above 2 μg/mL
